Biological target: T1, CCR2 (Homo sapiens, UniProt P41597)
T1 construct: Membranes were prepared from THP-1 cells; endogenous in cells; host or cells: THP-1 cells (membrane preparation)
T1 sequence (P41597 1-360 isoform P41597-2): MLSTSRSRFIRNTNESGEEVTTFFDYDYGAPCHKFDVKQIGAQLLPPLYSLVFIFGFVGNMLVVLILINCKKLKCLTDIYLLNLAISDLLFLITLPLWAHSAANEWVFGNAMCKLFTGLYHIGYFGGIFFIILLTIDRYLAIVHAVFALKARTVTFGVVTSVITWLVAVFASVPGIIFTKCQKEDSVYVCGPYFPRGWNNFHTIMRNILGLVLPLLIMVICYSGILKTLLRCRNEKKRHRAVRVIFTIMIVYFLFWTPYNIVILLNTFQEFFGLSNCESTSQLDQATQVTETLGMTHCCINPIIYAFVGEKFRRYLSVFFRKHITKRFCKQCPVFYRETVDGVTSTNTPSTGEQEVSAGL
Assay: CCR2 receptor membrane binding assay ([125I]MCP-1, THP-1 cell membranes, SPA beads)
Conditions: for remaining activity at 10 µM / CCR2 % ctrl @ 10 μM: @ 10 μM test compound, THP-1 membranes; for remaining activity at 10 µM: read-out: CCR2 % ctrl @ 10 μM; for Ki: dissociation constant hKi, [125I]MCP-1 binding to THP-1 membranes
Protocol: The above exemplary substances have been tested for binding to CCR2 using a binding assay as outlined herein below:
THP-1 cells (human acute monocytic leukaemia cells) were cultured under standardized conditions at 37° C. and 5% CO2 in a humidified incubator. THP-1 cells were cultivated in RPMI 1640 medium (Gibco 21875) containing 1% MEM-NEAA (Gibso 11140) 2 mM L-glutamine, 1.5 g/L sodium bicarbonate, 4.5 g/L glucose, 10 mM HEPES and 1.0 mM sodium pyruvate, 90%; 10% fetal calf serum (FCS Gibco 10500-064).
Membranes were prepared from THP-1 cells. THP-1 cells were centrifuged at 300×g at 4° C. for 10 min. The cell pellet was resuspendet in Phosphate Buffer Saline (PBS, including 10 μM Pefabloc and a protease inhibitor mix ‘complete’, Boehringer Mannheim (1 tablet/50 ml)), to a concentration of […]. The membrane preparation was performed by disrupting the cells by nitrogen […] (at 50 bar, for 1 h) in a “Nitrogen Bombe” (Parr Instrument). Cell debris was removed by centrifugation (800×g at 4° C., 1 min). The supernatant was centrifuged at 80000×g, 4° C. for 30 min to sediment the cell membranes. Usually 50 mg of protein (Bradford assay) were yielded from 1×10E9 cells. The membranes were resuspendet in 25 mM HEPES, 25 mM MgCl2, 1 mM CaCl2, 10% Glycerine for storage in aliquots at −80° C. in 25 mM HEPES, 25 mM MgCl2, 1 mM CaCl2, 10% Glycerine and stored at −80° C.
Receptor Membrane Binding Assay:
Perkin Elmer NEX 332 Jod 125 MCP-1, Stock: 2200 Ci/mmol solved in 2000 μl assay buffer, stored at −20° C. THP-1 membrane were adjusted with 25 mM HEPES, pH 7.2; 5 mM MgCl2; 0.5 mM CaCl2; 0.2% BSA assay buffer to a concentration of […]. Amersham Biosciences PVT-WGA Beads (RPNQ0001) were adjusted with assay buffer to a concentration of 0.24 mg/30 μl. For preparation of the membrane-bead-suspension membranes and beads were incubated for 30 min at RT under rotation (60 rpm) with a ratio of 1:2. Test compounds dissolved in 100% DMSO to a concentration of 10 mM and are further diluted with 100% DMSO to 1 mM. All additional compound dilutions were obtained with assay buffer, final 1% DMSO. Compounds, membrane-bead-suspension and [125I]MCP-1 (ca. 25000 cpm/10 μl) were incubated. Bound radioactivity was determined by scintillation counter after 8 h. Determination of affinity of test compounds (dissociation constant hKi) is calculated by iterative fitting of experimental data using the “easy sys” program, which is based on law of mass action (Schittkowski K. (1994), Numerische Mathematik, Vol. 68, 129-142).

Row | SMILES | remaining activity at 10 µM [%] | Ki [nM] | CCR2 % ctrl @ 10 μM [% ctrl]
1 | Cc1nc(NC2CCCC(c3ccccc3)C2)c(C)c(C(=O)N2CCC(N3CCC(NS(C)(=O)=O)CC3)CC2)n1 (centres unmarked) [Example 89] | 29 | 770 | 
2 | Cc1nc(NCC2COc3ccccc3C2)c(C)c(C(=O)N2CCC(N3CCC(NS(C)(=O)=O)CC3)CC2)n1 (centres unmarked) [Example 90] | 10 | 127 | 
3 | Cc1nc(NCCc2ccc(Cl)c(Cl)c2)c(C)c(C(=O)N2CCC(N3CCC(O)CC3)CC2)n1 [Example 91] | 23 | 236 | 
4 | Cc1nc(NCc2ccc(Cl)c(Cl)c2)c(C)c(C(=O)N2CCC(N3CCC(O)CC3)CC2)n1 [Example 92] | 14 | 175 | 
5 | CNC(=O)C1CCN(C2CCN(C(=O)c3ncnc(NCC4CCN(c5ccccc5)C4)c3C)CC2)CC1 (centres unmarked) [Example 93] | 6 | 123 | 
6 | COC1CCN(C2CCN(C(=O)c3ncnc(NCc4ccc(C(C)C)cc4)c3C)CC2)CC1 [Example 94] | 8 | 211 | 
7 | COC1CCN(C2CCN(C(=O)c3ncnc(NCc4ccc(Cl)c(F)c4)c3C)CC2)CC1 [Example 95] | 2 | 170 | 
8 | COC1CCN(C2CCN(C(=O)c3ncnc(NCC4CCN(c5ccccc5)CC4)c3C)CC2)CC1 [Example 96] | 21 | 939 | 
9 | COC1CCN(C2CCN(C(=O)c3ncnc(NCC4CCCN(c5ccccc5)C4)c3C)CC2)CC1 (centres unmarked) [Example 97] | 17 | 665 | 
10 | COC1CCN(C2CCN(C(=O)c3ncnc(NCc4ccc(C)c(Cl)c4)c3C)CC2)CC1 [Example 98] | 2 | 214 | 
11 | Cc1c(NCCc2ccccc2)ncnc1C(=O)N1CCC(N2CCC(O)CC2)CC1 [Example 99] | 32 | 1830 | 
12 | Cc1c(NCc2cccc(-c3ccccc3)c2)ncnc1C(=O)N1CCC(N2CCCC(O)C2)CC1 (centres unmarked) [Example 100] | 18 | 395 | 
13 | Cc1c(NCc2ccc(-c3ccccc3)cc2)ncnc1C(=O)N1CCC(N2CCC(O)CC2)CC1 [Example 101] | 35 | 986 | 
14 | Cc1c(NCc2cccc(-c3ccccc3)c2)ncnc1C(=O)N1CCC(N2CCC(O)CC2)CC1 [Example 102] | 15 | 224 | 
15 | O=C(c1cc(NCc2ccc(-c3ccccc3)cc2)ncn1)N1CCC(N2CCCC(O)C2)CC1 (centres unmarked) [Example 103] | 30 | 1610 | 
16 | Cc1ccc(CNc2ncnc(C(=O)N3CCC(N4CCCCC4)CC3)c2C)cc1F [Example 104] |  | 617 | 31
17 | COc1ccc(CCNc2ncnc(C(=O)N3CCC(N4CCC(O)CC4)CC3)c2C)cc1Cl [Example 105] | 31 | 687 | 
18 | Cc1c(NCCc2ccc(C(C)C)cc2)ncnc1C(=O)N1CCC(N2CCC(O)CC2)CC1 [Example 106] | 13 | 405 | 
19 | Cc1c(NCc2ccc(Cl)c(Cl)c2)ncnc1C(=O)N1CCC(N2CCOCC2)CC1 [Example 107] | 12 | 232 | 
20 | Cc1c(NCC2CCCCC2)ncnc1C(=O)N1CCC(N2CCC(O)CC2)CC1 [Example 108] | 20 | 627 | 
21 | Cc1c(NCc2ccc(Cl)c(Cl)c2)ncnc1C(=O)N1CCC(N2CCC(O)CC2)CC1 [Example 109] | 11 | 213 | 
22 | Cc1c(NCc2ccc(Cl)cc2)ncnc1C(=O)N1CCC(N2CCC(O)CC2)CC1 [Example 110] | 28 | 527 | 
23 | Cc1c(NCc2ccc(F)c(Cl)c2)ncnc1C(=O)N1CCC(N2CCC(O)CC2)CC1 [Example 111] | 27 | 464 | 

Row | SMILES | remaining activity at 10 µM [%] | Ki [nM] | CCR2 % ctrl @ 10 μM [% ctrl]
24 | Cc1c(NCCc2ccc(C(C)(C)C)cc2)ncnc1C(=O)N1CCC(N2CCC(O)CC2)CC1 [Example 112] | 21 | 378 | 
25 | Cc1c(NCC2CCN(c3ccccc3)CC2)ncnc1C(=O)N1CCC(N2CCC(O)CC2)CC1 [Example 113] | 46 | 3310 | 
26 | Cc1c(NCC2CCCC(c3ccccc3)C2)ncnc1C(=O)N1CCC(N2CCC(O)CC2)CC1 (centres unmarked) [Example 114] | 8 | 62 | 
27 | Cc1c(NCCc2ccc(F)c(F)c2)ncnc1C(=O)N1CCC(N2CCC(O)CC2)CC1 [Example 115] | 33 | 847 | 
28 | Cc1c(NCc2ccc(C(F)(F)F)c(Cl)c2)ncnc1C(=O)N1CCC(N2CCC(O)CC2)CC1 [Example 116] | 16 | 198 | 
29 | Cc1c(NCc2ccc(Cl)c(F)c2)ncnc1C(=O)N1CCC(N2CCC(O)CC2)CC1 [Example 117] | 19 | 285 | 
30 | Cc1cc(CNc2ncnc(C(=O)N3CCC(N4CCC(O)CC4)CC3)c2C)ccc1F [Example 118] | 41 | 2160 | 
31 | COc1ccc(CCNc2ncnc(C(=O)N3CCC(N4CCC(O)CC4)CC3)c2C)cc1Cl [Example 119] |  | 1030 | 37
32 | Cc1ccc(CNc2ncnc(C(=O)N3CCC(N4CCC(O)CC4)CC3)c2C)cc1F [Example 120] | 30 | 499 | 
33 | Cc1c(NCC2CCC(c3ccccc3)CC2)ncnc1C(=O)N1CCC(N2CCC(O)CC2)CC1 (centres unmarked) [Example 121] | 15 | 147 | 
34 | Cc1c(NCCc2cccc(Cl)c2)ncnc1C(=O)N1CCC(N2CCC(O)CC2)CC1 [Example 122] | 23 | 415 | 
35 | Cc1c(NCc2cccc(Cl)c2)ncnc1C(=O)N1CCC(N2CCC(O)CC2)CC1 [Example 123] | 26 | 542 | 
36 | Cc1c(NCCc2ccc(Cl)cc2)ncnc1C(=O)N1CCC(N2CCC(O)CC2)CC1 [Example 124] | 20 | 361 | 
37 | Cc1c(NCc2ccc(Cl)c(C(F)(F)F)c2)ncnc1C(=O)N1CCC(N2CCC(O)CC2)CC1 [Example 125] | 25 | 446 | 
38 | Cc1ccc(CCNc2ncnc(C(=O)N3CCC(N4CCC(O)CC4)CC3)c2C)cc1C [Example 126] | 23 | 399 | 
39 | Cc1c(NCc2ccc(Cl)cc2)ncnc1C(=O)N1CCC(N2CCCCC2)CC1 [Example 127] | 35 | 665 | 
40 | Cc1c(NCc2ccc(F)c(Cl)c2)ncnc1C(=O)N1CCC(N2CCCCC2)CC1 [Example 128] | 26 | 445 | 
41 | Cc1c(NCCc2ccc(C(C)(C)C)cc2)ncnc1C(=O)N1CCC(N2CCCCC2)CC1 [Example 129] | 21 | 336 | 
42 | Cc1c(NCC2CCN(c3ccccc3)CC2)ncnc1C(=O)N1CCC(N2CCCCC2)CC1 [Example 130] | 50 | 4270 | 
43 | Cc1c(NCC2CCCC(c3ccccc3)C2)ncnc1C(=O)N1CCC(N2CCCCC2)CC1 (centres unmarked) [Example 131] | 6 | 55 | 
44 | Cc1c(NCCc2ccc(F)c(F)c2)ncnc1C(=O)N1CCC(N2CCCCC2)CC1 [Example 132] | 31 | 672 | 
45 | Cc1c(NCc2ccc(C(F)(F)F)c(Cl)c2)ncnc1C(=O)N1CCC(N2CCCCC2)CC1 [Example 133] | 15 | 205 | 
46 | Cc1c(NCc2ccc(Cl)c(F)c2)ncnc1C(=O)N1CCC(N2CCCCC2)CC1 [Example 134] | 23 | 399 | 

From patent US8835440B2, “Cyclic pyrimidin-4-carboxamides as CCR2 receptor antagonists for treatment of inflammation, asthma and COPD” (Boehringer Ingelheim International GmbH, priority 2008, dated 2014)
